Assay results from patent publication US20030165579A1, “Euphorbia antiquorum extract, a pharmaceutical composition containing the same and methods for treatment of cancers” (priority 2002, published 2003).

Tests used:
hepatoma = conditions: cited from earlier work
[1] = tested on: P-388 lymphocytic leukemia; conditions: mice; cited from earlier work
HT-29 = assay: Cell proliferation assay (MTS) on HT-29; format: cell-based, Human; conditions: for Cell Growth: positive control
Experimental: (§1) The ability of extract of Euphorbia antiquorum described in Example 1 to inhibit the growth of five different human tumor cell lines was tested. The activity of Doxorubicin, a currently clinically used chemotherapeutic agent, against the tumor cell lines was tested as a control.
(§2) Five human tumor cell lines COLO 205, HT-29, U-937, MOLT4 and HA22T/VGH, were tested in this example (Table 3).
(§3) All five cancer cell lines were stored in liquid nitrogen. After thawing, cells were maintained as monolayer in appropriate medium (GIBCO, USA) supplemented with 10% fetal bovine serum, sodium bicarbonate, L-glutamine (2 mM), streptomycin (100 μg/ml) and penicillin-G (100 units/ml) in a humidified incubator at 37±1° C. and 5% CO2 in air.
(§4) Exponentially growing human cancer cells were seeded in an appropriate medium in 96-well ELISA microtiter plates. The number of cells for each cell line plated in 96-well plates was determined from the growth curve obtained in MTS assay (600 to 20,000 cells depending on cell line). These plates of adherent cells were incubated overnight. Six well cultures were used for each concentration of MH801 of the invention and for negative and positive control cultures.
MH801 was dissolved in culture medium. […] Since the solution prepared in culture medium at working concentration can be used directly rather than a stock solution at 200 fold concentration in DMSO, culture medium, instead of DMSO, was used as vehicle in the present invention. Maximum concentration for this assay was 10 mg/ml. Serial ten fold dilution was used in this invention, and therefore, the concentrations were 10, 1, 0.1, 0.01 and 0.001 mg/ml. […]
(§5) After three days of culture, the viable cells were counted by changing the culture medium containing a tetrazolium compound
(3-4,5-dimethylthiazol-2-yl)-5(3-carboxymethoxyphenyl)-2-(4-sulfophenyl)-2H-tetrazolium, inner salt and an electron coupling reagent to measure mitochondrial enzyme activity. The absorbance at […] was measured after 2 hours to 4 hours reaction time. Cell growth % is calculated using the following equations: [formula] […]

tumors = conditions: chemotherapy, tumor control; cited from earlier work
HA22T/VGH = assay: Cell proliferation assay (MTS) on HA22T/VGH; format: cell-based, Human; conditions: positive control
Experimental: as §1, §2, §3, §4
(§6) MH801 was dissolved in culture medium. […] Since the solution prepared in culture medium at working concentration can be used directly rather than a stock solution at 200 fold concentration in DMSO, culture medium, instead of DMSO, was used as vehicle in the present invention. Maximum concentration for this assay was 10 mg/ml. Serial ten fold dilution was used in this invention, and therefore, the concentrations were 10, 1, 0.1, 0.01 and 0.001 mg/ml. After sufficient mixing, this solution was passed through filter of 0.2 μm pore size for sterility. Filtrate was serially diluted with culture medium to desired concentrations for treatment.
as §5
(§7) (3-4,5-dimethylthiazol-2-yl)-5(3-carboxymethoxyphenyl)-2-(4-sulfophenyl)-2H-tetrazolium, inner salt and an electron coupling reagent to measure mitochondrial enzyme activity. The absorbance at […] was measured after 2 hours to 4 hours reaction time. Cell growth % is calculated using the following equations: [formula]
(§8) Doxourbicin was used as positive control for assay system evaluation and was prepared in dimethyl sulfoxide (Merck Art. 2931, Germany) as stock solution to be added to culture medium.

U-937 = assay: Cell proliferation assay (MTS) on U-937; format: cell-based, Human; conditions: for Cell Growth: positive control
Experimental: as §1, §2, §3, §4, §6, §5, §7, §8

MOLT 4 = assay: Cell proliferation assay (MTS) on MOLT 4; format: cell-based, Human; conditions: for Cell Growth: positive control
Experimental: as §1, §2, §3, §4, §6, §5, §7, §8

COLO 205 = assay: Cell proliferation assay (MTS) on COLO 205; format: cell-based, Human; conditions: for Cell Growth: positive control
Experimental: as §1, §2, §3, §4, §6, §5, §7, §8

[2] = tested on: Ehrlich acites tumor cell; conditions: Planta Med. 62, 322-5, 1996; cited from earlier work

O=c1[nH]cc(F)c(=O)[nH]1 [5-FU]
patients responded to the medicine (hepatoma; 62 hepatoma patients, hepatic intra-arterial infusion): 48% | survival, non-responders (hepatoma; hepatoma patients who did not respond): 1.8 months | survival in average, responders (hepatoma; hepatoma patients who responded): 6.9 months

CCCCCCCCCCCCCCCC(=O)OCC1=C[C@@H]2C(=O)[C@]3(C=C(C)[C@H](OC(=O)C(C)C(C)C)[C@@]3(O)[C@@H]1O)[C@H](C)C[C@]1(OC(=O)CCCCCCCCCCC)[C@H]2C1(C)C (stereo partly shown) [13-hydroxyingenol-3-(2,3-dimethylbutanoate)-13-dodecanoate-20-hexadecanoate]
antileukemic activity against P-388 lymphocytic leukemia [1]: antileukemic effect

CCCCCCCCCCCCCCCC(=O)OC[C@@]12O[C@@H]1[C@@H]1C(=O)[C@]3(C=C(C)[C@H](OC(=O)C(C)C(C)C)[C@@]3(O)[C@@H]2O)[C@H](C)C[C@]2(OC(=O)CCCCCCCCCCC)[C@H]1C2(C)C (stereo partly shown) [6,7-epoxy-13-hydroxyingenol-3-(2,3-dimethylbutanoate)-13 dodecanoate-20-hexadecanoate]
antileukemic activity against P-388 lymphocytic leukemia [1]: antileukemic effect

CC1=C[C@]23C(=O)[C@@H](C=C(COC(=O)c4ccccc4)[C@@H](O)[C@]2(O)[C@H]1OC(=O)c1ccccc1)[C@H]1[C@@H](C[C@H]3C)C1(C)C [Ingenol 3,20-debenzoate]
antileukemic activity against P-388 lymphocytic leukemia [1]: antileukemic activity

COc1cccc2c1C(=O)c1c(O)c3c(c(O)c1C2=O)C[C@@](O)(C(=O)CO)C[C@@H]3O[C@H]1C[C@H](N)[C@H](O)[C@H](C)O1 [Doxorubicin]
Cell Growth (HT-29; HT-29, 1.74 μg/ml): 35% | Cell Growth (HT-29; HT-29, 3.48 μg/ml): 15.9% | antiproliferative effect (HT-29; HT-29, positive control): very strong antiproliferative effect | remission effect (tumors): 15-23% | Cell Growth (HA22T/VGH; 0.0058 μg/ml): 103% | Cell Growth (HA22T/VGH; 0.058 μg/ml): 81.53% | Cell Growth (HA22T/VGH; 0.58 μg/ml): 38.8% | Cell Growth (HA22T/VGH; 5.8 μg/ml): 14.4% | antiproliferative effect (HA22T/VGH): very strong antiproliferative effect | Cell Growth (U-937; U-937, 0.0058 μg/ml): 100.5% | Cell Growth (U-937; U-937, 0.058 μg/ml): 80.9% | Cell Growth (U-937; U-937, 0.58 μg/ml): 3.7% | Cell Growth (U-937; U-937, 5.8 μg/ml): 1.6% | antiproliferative effect (U-937; U-937, positive control): very strong antiproliferative effect | Cell Growth (MOLT 4; MOLT 4, 0.0058 μg/ml): 71.2% | Cell Growth (MOLT 4; MOLT 4, 0.058 μg/ml): 0% | Cell Growth (MOLT 4; MOLT 4, 0.58 μg/ml): 0% | Cell Growth (MOLT 4; MOLT 4, 5.8 μg/ml): 0% | antiproliferative effect (MOLT 4; MOLT 4, positive control): very strong antiproliferative effect | Cell Growth (COLO 205; COLO 205, 0.058 μg/ml): 63.2% | Cell Growth (COLO 205; COLO 205, 0.58 μg/ml): 33.8% | Cell Growth (COLO 205; COLO 205, 5.8 μg/ml): 8.23% | antiproliferative effect (COLO 205; COLO 205, positive control): very strong antiproliferative effect

9,19-cycloart-23-ene-3 β,24-diol
inhibitory activity against Ehrlich acites tumor cell [2]: significant inhibitory activity

C/C=C(\C)C(=O)O[C@@H]1[C@@H](C)[C@@]2(O)[C@@H](C=C(CO)C[C@]3(O)C(=O)C(C)=C[C@@H]23)[C@@H]2C(C)(C)[C@]12OC(=O)CCCCCCCCC [phorbol 12-tiglate 13-decanoate]
antileukemic activity against P-388 lymphocytic leukemia [1]: antileukemic activity
